Literature values, collected in patent publication US20170071839A1, “Personal care and medicinal products incorporating organosulfur groups” (priority 2015, published 2017).
Like-named read-outs stand apart in the source and are kept apart here. Values belong to the molecule of their own block, whether it stands above or below them.

Legend:
[1] = after garlic consumption
[2] = tested on: acetaminophen (Tylenol) poisoning
[3] = tested on: total glutathione level of cells
[4] = not given; remark: listed apart in the source
[5] = target: NFkB signal transduction proteins p50 and P65 (Homo sapiens, UniProt P19838+Q04206)
[6] = tested on: Salmonella typhimurium and E. coli
[7] = after fresh garlic (e.g. 25 g) or pure allicin (60 mg)
[8] = shelf stability
NFkB = conditions: macrophages

Molecule: C=CCSC[C@H](N)C(=O)O [S-allylcysteine]
effect on Cu2+ induced LDL oxidation (LDL): significantly reduce

Molecule: S-allylcysteine sulfoxide [alliin]
effect on Cu2+ induced LDL oxidation (LDL): significantly reduce

Molecule: CS[S+](C)[O-] (stereo not drawn) [methyl methane thiosulfinate]
activity against E-coli O157:H7 (E-coli O157:H7): effective

solubility: low solubility
Molecule: N[C@@H](CSSC[C@H](N)C(=O)O)C(=O)O [Cysteine disulfide, Cystine]

solubility: water soluble | time of disappearance from breath [1]: ≤ 1 h
Molecule: C=CCS [AllylSH, AllylThiol]

Molecule: C=CCSC [AMS, allyl methyl sulfide]
time of disappearance from breath [1]: 20 h

Molecule: C=CCSSC[C@H](N)C(=O)O [SAMC, S-AllylMercaptoCysteine]
protection from acetaminophen poisoning ([2]; post treatment, single dose 200 mg/kg): protective | protection from acetaminophen poisoning ([2]; pretreatment): protect mice | effect on Cu2+ induced LDL oxidation (LDL): significantly reduce | total glutathione level of cells [3]: significantly increase the total glutathione level | Reaction in Blood Product (moles) [4]: AllylSH (0.8)

Molecule: C=CCSC[C@H](NC(C)=O)C(=O)O [N-acetyl-S-allylcysteine]
effect on Cu2+ induced LDL oxidation (LDL): significantly reduce

Molecule: [N]=O [nitric oxide]
concentration that inhibited the DNA binding activity [5]: 20-100 nano mole

Molecule: C=CCS[S+](C)[O-] (stereo not drawn) [methyl allyl thiosulfinate]
activity against E-coli O157:H7 (E-coli O157:H7): effective

Molecule: C=CCSSCC=C [DADS, Diallyl Disulfide]
Reaction in Blood Product (moles) [4]: AllylSH (0.8)

Molecule: C=CCSSCCC [n-propyl allyl disulfide]
antibiotic effectiveness [6]: antibiotic effectiveness

detection in blood, urine, or stool [7]: undetectable | half-life [8]: weeks to months | Reaction in Blood Product (moles) [4]: AllylSH (1.6) | time to be metabolized to allyl mercaptan ([4]; red blood cells exposed to allicin): less than one
Molecule: C=CCS[S+]([O-])CC=C (stereo not drawn) [Allicin, DiAllylThioSulfinate]

Molecule: N[C@@H](CSN=O)C(=O)O [S-Nitrosocysteine]
concentration that nearly completely inhibits the activation of NFkB (NFkB): 1 micro-mole

Molecule: CCCSSCCC [di-n-proply disulfide]
antibiotic effectiveness [6]: antibiotic effectiveness

Molecule: CCCS[S+]([O-])CCC (stereo not drawn) [dipropylthiosulfinate]
nematicidal activity (nematicidal activity): most effective compound
